The subject of one data set is IST-MEL-1. The data set is described as follows: Cell growth inhibition, SRB assay. The note with it: Homo sapiens, IST-MEL-1, 48 h. The class given is cell-based. Here is the method:
(§1) The IC50 values for each compound were then evaluated by the SRB assay.

The next data set deals with MALME-3M. The data set is described as follows: Cell growth inhibition, SRB assay. Type of data set: cell-based. The following applies: Homo sapiens, 48 h. How it is done:
as §1

In the next data set the test system is A375. The data set is described as follows: Cell growth inhibition, SRB assay. Type of data set: cell-based. The following applies: Homo sapiens, A-375, A375, 48 h. How it is done: as §1
For another data set, the system named is G-361. As to the kind of experiment: Cell growth inhibition, SRB assay. The note with it: Homo sapiens, G-361, 48 h. Type of data set: cell-based. Here is the method:
as §1

Another data set deals with SK23-MEL. As to the kind of experiment: Cell growth inhibition, SRB assay. Type of data set: cell-based. The note with it: Homo sapiens, 48 h. Here is the method:
as §1

In a further data set the target is T1, GSTM2-2 (Homo sapiens, UniProt P28161).
T1 construct: made in house; host or cells: Escherichia coli
T1 sequence (P28161 1-218): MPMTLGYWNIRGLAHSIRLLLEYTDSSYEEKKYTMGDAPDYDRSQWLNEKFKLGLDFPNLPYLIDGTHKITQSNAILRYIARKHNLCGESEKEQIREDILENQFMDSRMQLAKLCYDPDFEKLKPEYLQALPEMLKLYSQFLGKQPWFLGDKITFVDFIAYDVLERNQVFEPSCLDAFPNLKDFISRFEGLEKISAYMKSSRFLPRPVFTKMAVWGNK
The data set is described as follows: Inhibition of GSTM2-2 conjugation activity. The class given is biochemical. The following applies: GSTM2-2 5 nM. Here is the method: (§2) Human GSTM2-2, GSTP1-1, JNK1a2 and TRAF2 were expressed in Escherichia coli and purified as previously described; protein concentration was determined using the Lowry colorimetric assay. Unless specified otherwise, all chemicals were purchased from Sigma-Aldrich S.r.l. (Milan, Italy).
GST activity was determined spectrophotometrically at 340 nm (ε = 9,600 M^−1 cm^−1), as previously reported. Inhibition experiments were performed by measuring GSTP1-1 (20 nM) or GSTM2-2 (5 nM) activities in the presence of various amounts of the selected NBD derivative (from 0.1 to 20 μM with GSTP1-1, and from 0.005 and 1 μM with GSTM2-2). Fifty percent inhibitory concentration (IC50) values were calculated by fitting the data to Equation 1, where ν is the percentage of the saturated binding sites; [P]t is the total GST concentration and [L]t is the total inhibitor concentration, assuming a 1:1 interaction stoichiometry between the inhibitor and one GST subunit, as well as that the binding sites are equal and independent.

Data set [1] deals with A375 cells. The data set is described as follows: Cell cycle analysis (PI, flow cytometry). The class given is cell-based, human. The following applies: A375, pretreatment with SP600125 20 μM, 24 hrs exposure to MC3181. How it is done: A375 and SK23-MEL cells, were fixed with 70% ethanol overnight, stained with PI staining buffer ([…] and 1% Triton X-100) and analyzed by a FACSCalibur (BD Bioscence, San Jose, CA, USA). The percentage of early apoptotic, late apoptotic, and necrotic cells was determined by simultaneous staining of cells with PI (2 μg/ml) and Annexin V-FITC (0.5 μg/ml) (Sigma Aldrich), according to manufacturer's protocol. Flow cytometric data were analyzed by the FlowJo 8.8.6 software (Tree Stare, Inc, Ashland, OR, USA).

Data set [2] relates to A375 cells. The data set is described as follows: Caspase-3 activity in cell lysates. The class given is cell-based, human. The following applies: A375, pretreatment with SP600125 20 μM, 24 hrs exposure to MC3181. How it is done: Apoptosis was confirmed by measuring caspase-3 activity, at 25°C, in total cell lysates, using the model fluorescent peptide substrate N-Acetyl-Asp-Glu-Val-Asp-7-amido-4-trifluoromethylcoumarin (Ac-DEVD-AFC). […] Caspase activity was expressed as change in fluorescence per min, per 10^6 cells.

The subject of data set [3] is mice bearing human tumor xenografts. The data set is described as follows: Toxicity in tumor-bearing mice (net BW variation, macroscopic autopsy). Type of data set: in vivo. The note with it: during treatment, MC3181 8 mg/kg/day, TMZ 100 mg/kg/day i.p. Here is the method:
Toxicity was also evaluated in tumor-bearing mice on the basis of macroscopic autopsy findings, mainly in terms of alteration to the size and color of vital organs, and net BW reduction. The percentage of net BW variation, between the first day of treatment and sacrifice day (or day of interest), was evaluated according to the following equation: % net BW variation =net BW at observation day −net BW at first day of treatment/net BW at first day of treatment ×100 (Eq. 2)

The test system of another data set is A375 human melanoma. As to the kind of experiment: A375 fragment xenograft model, antitumor efficacy. The following applies: MC3181 i.v. 8mg/kg/d q1dx5 three weeks. Type of data set: in vivo, mice. How it is done: With regard to the in vivo fragment tumor model, A375 cells were injected (1×10^7) subcutaneously (s.c.) into the right flank of an athymic Nude-Foxn1nu female mouse, and the established primary tumor was then removed and cut into fragments (2–3 mm diameter) and implanted s.c. into recipient mice. Animals were randomly divided in groups of 7 mice and treatment was initiated when a tumor volume of 0.12 ± 0.01 cm^3 (mean ± SEM) was reached.
The reference drug temozolomide, dissolved in DMSO/PBS 1:1 to a final concentration of 10 mg/ml, was administered i.p. q1dx5 at a dose of 100mg/kg/day.
Primary tumor growth was determined for all animals by caliper measurement (minor and major axis length), three times per week, until they were sacrificed. Primary tumor volume was determined using the following equation: V (cm^3)=(α^2×β)/2 (Eq. 3)
The efficacy of the treatment was also analyzed by calculation of the percentage of Increase in Life Span (% ILS), since this analysis gives an evidence of clinical potency. Survival endpoint for each animal was fixed at the day when tumor volume reached 1.0 cm^3 (A375) or 0.4 cm^3 (SK23-MEL and G-361), and data were used to plot the relative Kaplan-Meier curves. Treatment efficacy was then evaluated by comparing the Median Survival Time (MST) of treated group with the MST of control group, and expressed as percentage of ILS: % ILS=[100×(MSTtreated group)/(MSTcontrol group)]−100 (Eq. 4)
Treatment was considered effective when % ILS > 20%.

Data set [4] in a line: Spontaneous reactivity with GSH (UV-visible spectra). The class given is physicochemical. The following applies: 40 μM compound, 1 mM GSH, 0.1 M potassium phosphate buffer pH 6.5, 25°C, within 1 h. How it is done:
The spontaneous reactivity of the NBDs with GSH was determined at 25°C by recording the UV-visible spectrum of each compound (40 μM) incubated with 1 mM GSH, in 0.1 M potassium phosphate buffer, pH 6.5, at different time points.

Data set [5] can be described thus: Solubility limits in aqueous buffers. The class given is physicochemical. The following applies: thermodynamic from solid. From the text: The solutions obtained were separated from any undissolved matter by centrifugation at 15,000 g and evaluated for drug concentration by recording compound absorbance at 425 nm, using molar extinction coefficients calculated at the same wavelength with diluted standard solutions, prepared in the same matrices.

Data set [6] addresses T2, GSTP1-1 (Homo sapiens, UniProt P09211).
T2 construct: made in house; host or cells: Escherichia coli
The data set is described as follows: Sigma complex formation in the GSTP1-1 active site. Type of data set: biochemical. The following applies: 40 μM compound, 40 μM GSTP1-1, 1 mM GSH, pH 6.5, 25°C. How it is done:
as §2
The ability of GSTP1-1 to stabilize the intermediate σ-complex formed between GSH and the compounds, was evaluated by recording the spectrum of each molecule (40 μM), in 0.1 M potassium phosphate buffer, pH 6.5, before and after the addition of a stoichiometric amount of GSTP1-1 and 1 mM GSH.

The target of data set [7] is T2, GSTP1-1. The data set is described as follows: Inhibition of GSTP1-1 conjugation activity. Type of data set: biochemical. Here is the method:
as §2
GST activity was determined spectrophotometrically at 340 nm (ε = 9,600 M^−1 cm^−1), as previously reported. […] Fifty percent inhibitory concentration (IC50) values were calculated by fitting the data to Equation 1, where ν is the percentage of the saturated binding sites; [P]t is the total GST concentration and [L]t is the total inhibitor concentration, assuming a 1:1 interaction stoichiometry between the inhibitor and one GST subunit, as well as that the binding sites are equal and independent.

The structures appear in SMILES notation. In brackets after ≈: the same amount, converted by molar mass. Where only a bound is given, the exact number is not on record here.

T2 sequence (P09211 2-210 limits assumed): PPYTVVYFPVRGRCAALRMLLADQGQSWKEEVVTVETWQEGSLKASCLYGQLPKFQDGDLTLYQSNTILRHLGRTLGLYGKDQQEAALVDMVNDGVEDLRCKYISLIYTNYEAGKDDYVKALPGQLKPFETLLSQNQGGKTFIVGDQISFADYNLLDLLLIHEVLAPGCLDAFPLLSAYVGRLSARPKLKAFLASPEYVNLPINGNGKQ

With `O=[N+]([O-])c1ccc(SCCCCCCO)c2nonc12` [NBDHEX, 6-((7-nitrobenzo[c][1,2,5]oxadiazol-4-yl)thio)hexan-1-ol, reference compound], the IC50 in the data set with IST-MEL-1 was 1420 ± 50 nM; in the data set on MALME-3M it was 1800 ± 120 nM; with A375, 1450 ± 140 nM; with G-361 it was 550 ± 30 nM; with SK23-MEL it was 1190 ± 90 nM; against GSTM2-2, not above 10 nM.
As for `Oc1c2ccccc2c2c3c(cccc13)N=N2` [SP600125, reference compound], in the data set with A375 cells [1], the “reduction of the MC3181-elicited increase in the number of cells in Sub-G1 phase” value is recorded as “about 40%”. Also, the “reduction of the MC3181-elicited increase of caspase-3 activity” value with A375 cells [2] is “about 50%”.
Regarding `Cn1nnc2c(C(N)=O)ncn2c1=O` [TMZ, temozolomide, reference compound], the “decrease in BW” value in data set [3] is approximately 15%. The “%ILS” value with A375 human melanoma (TMZ i.p. 100 mg/kg/d q1dx5) came out at 35%. Also, the tumor growth result with A375 human melanoma (TMZ i.p. 100 mg/kg/d q1dx5, from day 13 onward, P < 0.05) is “significantly delayed tumor growth”.
`O=[N+]([O-])c1ccc(SCCOCCO)c2nonc12` [MC3165, 2-(2-((7-nitrobenzo[c][1,2,5]oxadiazol-4-yl)thio)ethoxy)ethan-1-ol]: the “decrease of the absorbance value at 430 nm after addition of excess GSH” value in data set [4] is given as “less than 15%”. Besides, the solubility is 2000 µM (≈ 571 µg/mL) in data set [5] (potassium phosphate buffer, pH 7.4, 0.1 M K-Phosphate buffer); 2000 µM (≈ 571 µg/mL) in data set [5] (sodium acetate buffer, pH 2.0, 0.1 M Na-Acetate Buffer); 1900 µM (≈ 542 µg/mL) in [5] (sodium acetate buffer, pH 5.0, 0.1 M Na-Acetate Buffer). Also, the results for the IC50 against GSTM2-2 and at GSTP1-1 [7] (GSTP1-1 20 nM) were 51 ± 8 nM and 4000 ± 200 nM, respectively. Moreover, the “stability of the σ-complex, rank order” value on GSTP1-1 [6] was “NBDHEX > MC3181 > MC3165”. The “Selectivity Index IC50GSTP1-1/IC50GSTM2-2” value on GSTP1-1 [7] was found to be 78.
